Experimental data: patent US20250340574A1, “MODULATORS OF CYSTIC FIBROSIS TRANSMEMBRANE CONDUCTANCE REGULATOR” (Vertex Pharmaceuticals Incorporated, priority 2022, published 2025)

Target: T1, CFTR (F508del/MF-HBE cells) (Homo sapiens, UniProt P13569, DEL508-508)
T1 construct: human bronchial epithelial (HBE) cells derived from CF subjects heterozygous for F508del and a minimal function CFTR mutation (F508del/MF-HBE); endogenous in cells; host or cells: Primary human bronchial epithelial cells from CF subjects (F508del/MF genotype), differentiated at an air-liquid interface
T1 sequence (P13569 with tags, fused parts or gaps DEL508-508): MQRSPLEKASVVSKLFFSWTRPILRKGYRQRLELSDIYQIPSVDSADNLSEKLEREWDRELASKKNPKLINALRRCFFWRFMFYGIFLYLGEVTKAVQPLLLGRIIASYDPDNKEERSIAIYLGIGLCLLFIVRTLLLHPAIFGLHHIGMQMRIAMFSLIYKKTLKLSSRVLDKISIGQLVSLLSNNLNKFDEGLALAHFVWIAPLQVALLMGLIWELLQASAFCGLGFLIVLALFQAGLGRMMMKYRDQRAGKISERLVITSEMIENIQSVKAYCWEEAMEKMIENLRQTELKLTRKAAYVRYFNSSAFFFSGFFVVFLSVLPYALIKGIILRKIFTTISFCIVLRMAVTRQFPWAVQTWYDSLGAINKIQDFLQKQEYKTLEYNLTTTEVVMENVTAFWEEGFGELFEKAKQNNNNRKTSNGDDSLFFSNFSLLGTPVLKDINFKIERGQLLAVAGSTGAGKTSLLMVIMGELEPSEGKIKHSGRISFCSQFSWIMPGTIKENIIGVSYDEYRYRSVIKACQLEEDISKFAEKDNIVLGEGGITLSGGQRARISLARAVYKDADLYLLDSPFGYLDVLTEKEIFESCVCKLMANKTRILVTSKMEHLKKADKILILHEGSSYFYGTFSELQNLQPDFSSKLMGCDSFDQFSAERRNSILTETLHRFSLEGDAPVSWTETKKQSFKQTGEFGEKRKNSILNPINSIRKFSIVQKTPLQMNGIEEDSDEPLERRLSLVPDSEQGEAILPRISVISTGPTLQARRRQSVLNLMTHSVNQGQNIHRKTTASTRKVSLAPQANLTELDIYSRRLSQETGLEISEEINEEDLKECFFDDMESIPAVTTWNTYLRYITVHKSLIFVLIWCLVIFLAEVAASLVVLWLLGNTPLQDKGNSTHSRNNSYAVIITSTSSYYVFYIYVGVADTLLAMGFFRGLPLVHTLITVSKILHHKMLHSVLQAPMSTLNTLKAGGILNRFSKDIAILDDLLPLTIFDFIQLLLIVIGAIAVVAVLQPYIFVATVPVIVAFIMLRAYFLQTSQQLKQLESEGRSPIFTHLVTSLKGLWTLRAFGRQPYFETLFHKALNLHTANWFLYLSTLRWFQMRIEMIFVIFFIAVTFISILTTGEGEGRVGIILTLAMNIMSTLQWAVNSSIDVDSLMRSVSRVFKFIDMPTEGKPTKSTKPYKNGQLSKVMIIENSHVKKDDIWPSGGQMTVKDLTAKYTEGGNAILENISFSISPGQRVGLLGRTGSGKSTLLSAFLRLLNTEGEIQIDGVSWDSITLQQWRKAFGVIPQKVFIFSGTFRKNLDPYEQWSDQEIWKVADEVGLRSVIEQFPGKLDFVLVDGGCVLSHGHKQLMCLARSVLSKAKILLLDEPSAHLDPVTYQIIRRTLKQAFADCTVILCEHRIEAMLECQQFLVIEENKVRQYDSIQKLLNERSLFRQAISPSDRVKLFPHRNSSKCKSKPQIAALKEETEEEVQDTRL
Experiment: Ussing chamber assay of CFTR-mediated short-circuit currents, Assay D (single concentration of 1 μM)
Assay type: cell-based
Conditions: with 44 nM potentiator and 18 μM Tezacaftor, 18-24 hours, 20% human serum
Method: Ussing chamber experiments were performed using human bronchial epithelial (HBE) cells derived from CF subjects heterozygous for F508del and a minimal function CFTR mutation (F508del/MF-HBE) and cultured as previously described (Neuberger T, Burton B, Clark H, Van Goor F Methods Mol Biol 2011:741:39-54). After four days the apical media was removed, and the cells were grown at an air liquid interface for >14 days prior to use.
To isolate the CFTR-mediated short-circuit (ISC) current, F508del/MF-HBE grown on Costar® Snapwell™ cell culture inserts were mounted in an Ussing chamber and the transepithelial ISC was measured under voltage-clamp recording conditions (Vhold=0 mV) at 37° C. The basolateral solution contained (in mM) 145 NaCl, 0.83 K2HPO4, 3.3 KH2PO4, 1.2 MgCl2, 1.2 CaCl2, 10 Glucose, 10 HEPES (pH adjusted to 7.4 with NaOH) and the apical solution contained (in mM) 145 NaGluconate, 1.2 MgCl2, 1.2 CaCl2, 10 glucose, 10 HEPES (pH adjusted to 7.4 with NaOH) and 30 μM amiloride to block the epithelial sodium channel. Forskolin (20 μM) was added to the apical surface to activate CFTR, followed by apical addition of a CFTR inhibitor cocktail consisting of BPO, GlyH-101, and CFTR inhibitor 172 (each at 20 μM final assay concentration) to specifically isolate CFTR currents. The CFTR-mediated ISC (μA/cm^2) for each condition was determined from the peak forskolin response to the steady-state current following inhibition.
The activity of the CFTR corrector compounds on the CFTR-mediated ISC was determined in Ussing chamber studies as described above. The F508del/MF-HBE cell cultures were either incubated with the corrector compounds at a range of concentrations in combination with 33 nM (6R,12R)-17-amino-12-methyl-6,15-bis(trifluoromethyl)-13,19-dioxa-3,4,18-triazatricyclo[12.3.1.12,5]nonadeca-1(18),2,4,14,16-pentaen-6-ol and 18 μM Tezacaftor or were incubated with the corrector compounds at a single fixed concentration of 1 μM in combination with 44 nM (6R,12R)-17-amino-12-methyl-6,15-bis(trifluoromethyl)-13,19-dioxa-3,4,18-triazatricyclo[12.3.1.12,5]nonadeca-1(18),2,4,14,16-pentaen-6-ol and 18 μM Tezacaftor for 18-24 hours at 37° C. and in the presence of 20% human serum. The concentration of corrector compounds with 44 nM or 33 nM (6R,12R)-17-amino-12-methyl-6,15-bis(trifluoromethyl)-13,19-dioxa-3,4,18-triazatricyclo[12.3.1.12,5]nonadeca-1(18),2,4,14,16-pentaen-6-ol and 18 μM Tezacaftor during the 18-24 hours incubations was kept constant throughout the Ussing chamber measurement of the CFTR-mediated ISC to ensure compounds were present throughout the entire experiment. The efficacy and potency of the putative F508del correctors was compared to that of the known Vertex corrector, (14S)-8-[3-(2-{Dispiro[2.0.2.1]heptan-7-yl}ethoxy)-1H-pyrazol-1-yl]-12,12-dimethyl-2λ^6-thia-3,9,11,18,23-pentaazatetracyclo[17.3.1.111,14.05,10]tetracosa-1(22),5,7,9,19(23),20-hexaene-2,2,4-trione, in combination with 18 μM Tezacaftor and 1 μM Ivacaftor.
• Assay A: 0.1 μM to 25 μM, 6 concentrations • Assay B: 0.00001 μM to 25 μM, 12 concentrations • Assay C: 0.026 μM to 25 μM, 6 concentrations • Assay D: Activity at single concentration of 1 μM

**Q.** For `Cc1cccc(C)c1-c1cc2nc(n1)NS(=O)(=O)c1cccc(c1)C(=O)N(Cc1nc3c(cc(C(C)C)n3C)s1)[C@H](CC(C)(C)C)CO2` [III-20, (11R)-6-(2,6-dimethylphenyl)-11-(2,2-dimethylpropyl)-12-[(5-isopropyl-4-methyl-pyrrolo[2,3-d]thiazol-2-yl)methyl]-2,2-dioxo-9-oxa-2λ^6-thia-3,5,12,19-tetrazatricyclo[12.3.1.14,8]nonadeca-1(18),4(19),5,7,14,16-hexaen-13-one], which “D activity at 1 μM (%)” value is on record?
**A.** Its value is “+++ (+++ is >60%)”.

**Q.** `Cc1cccc(C(C)C)c1-c1nc2nc(c1C)OC[C@@H](CC(C)(C)C)N(Cc1cnc3oc(C(C)C)cc3n1)C(=O)c1cccc(c1)S(=O)(=O)N2` (atropisomer, axis not shown) [Compound I-135] was tested. Which “D activity at 1 μM (%)” value did it give?
**A.** Its value is “+++ (+++ is >60%)”.

**Q.** For `Cc1cccc(C)c1-c1nc2nc(c1C)OC[C@@H](CC(C)(C)C)N(Cc1cnc3cc(C4(C)CC4)n(C)c3n1)C(=O)c1cccc(c1)S(=O)(=O)N2` [Compound I-229], which “D activity at 1 μM (%)” value is on record?
**A.** Its value is “+++ (+++ is >60%)”.

**Q.** For `Cc1cccc(C)c1-c1nc2nc(c1C)OC[C@@H](CC1(C)CC1)N(Cc1cnc3oc(C4(C)CC4)cc3n1)C(=O)c1cccc(c1)S(=O)(=O)N2` [Compound I-232], which “D activity at 1 μM (%)” value is on record?
**A.** Its value is “+++ (+++ is >60%)”.

**Q.** Which “D activity at 1 μM (%)” value does the source give for `Cc1cccc(C)c1-c1cc2nc(n1)NS(=O)(=O)c1cccc(c1)C(=O)N(Cc1cnc3oc(C4CC4)cc3n1)[C@H](COC1CC1)CO2` [Compound I-115] here?
**A.** Its value is “+++ (+++ is >60%)”.

**Q.** For `Cc1cccc(C)c1-c1nc2nc(c1C)OC[C@@H](CC(C)(C)C)N(Cc1nc3cc(C4(C)CC4)oc3cc1F)C(=O)c1cccc(c1)S(=O)(=O)N2` [Compound I-236], which “D activity at 1 μM (%)” value is on record?
**A.** Its value is “+++ (+++ is >60%)”.

**Q.** How did the “D activity at 1 μM (%)” value turn out when `Cc1cccc(C)c1-c1cc2nc(n1)NS(=O)(=O)c1cccc(c1)C(=O)N(Cc1nc3cc(C(C)(C)C)oc3cc1F)[C@H](CC1(C)CC1)CO2` [Compound I-243] was run?
**A.** Its value is “+++ (+++ is >60%)”.

**Q.** `Cc1cccc(C)c1-c1nc2nc(c1C)OC[C@@H](CC1(C)CC1)N(Cc1cnc3cc(C4(C)CC4)n(C)c3n1)C(=O)c1cccc(c1)S(=O)(=O)N2` [Compound I-230] was tested. Which “D activity at 1 μM (%)” value did it give?
**A.** The value was “+++ (+++ is >60%)”.

**Q.** Which “D activity at 1 μM (%)” value does the source give for `Cc1cccc(C(C)C)c1-c1nc2nc(c1C)OC[C@@H](CC(C)(C)C)N(Cc1cnc3cc(C(C)C)n(C)c3n1)C(=O)c1cccc(c1)S(=O)(=O)N2` (atropisomer, axis not shown) [Compound I-180] here?
**A.** Its value is “+++ (+++ is >60%)”.

**Q.** Which “D activity at 1 μM (%)” value does the source give for `Cc1cccc(C)c1-c1cc2nc(n1)NS(=O)(=O)c1cccc(c1)C(=O)N(Cc1cnc3nn(C(C)C)cc3n1)[C@H](CC(C)(C)C)CO2` [Compound I-169, (11R)-6-(2,6-Dimethylphenyl)-11-(2,2-dimethylpropyl)-12-[(2-isopropylpyrazolo[3,4-b]pyrazin-5-yl)methyl]-2,2-dioxo-9-oxa-2λ^6-thia-3,5,12,19-tetrazatricyclo[12.3.1.14,8]nonadeca-1(18),4(19),5,7,14,16-hexaen-13-one] here?
**A.** The value was “+++ (+++ is >60%)”.

**Q.** For `Cc1cccc(C)c1-c1cc2nc(n1)NS(=O)(=O)c1cccc(c1)C(=O)N(Cc1cnc3oc(C(C)C)cc3n1)[C@H](CC(C)C)CCO2` [Compound I-5], which “D activity at 1 μM (%)” value is on record?
**A.** The value was “+++ (+++ is >60%)”.

**Q.** Which “D activity at 1 μM (%)” value does the source give for `Cc1cccc(C)c1-c1cc2nc(n1)NS(=O)(=O)c1cccc(c1)C(=O)N(Cc1ncc3oc(C(C)(C)C)cc3n1)[C@H](CC(C)(C)C)CO2` [Compound I-250] here?
**A.** The value was “+++ (+++ is >60%)”.

**Q.** Which “D activity at 1 μM (%)” value does the source give for `Cc1cccc(C)c1-c1cc2nc(n1)NS(=O)(=O)c1cccc(c1)C(=O)N(Cc1cnc3nc(C(C)C)n(C)c3n1)[C@H](CC(C)(C)C)CO2` [Compound I-73] here?
**A.** The value was “+++ (+++ is >60%)”.

**Q.** How did the “D activity at 1 μM (%)” value turn out when `CCC(C)(C)C[C@H]1COc2cc(-c3c(C)cccc3C)nc(n2)NS(=O)(=O)c2cccc(c2)C(=O)N1Cc1cnc2oc(C(C)C)cc2n1` (stereo in doubt) [Compound I-39] was run?
**A.** The value was “++ (++ is 30-60%)”.

**Q.** Which “D activity at 1 μM (%)” value does the source give for `Cc1cccc(C)c1-c1nc2nc(c1C)OC[C@@H](COC(C)C)N(Cc1cnc3cc(C(C)C)n(C)c3n1)C(=O)c1cccc(c1)S(=O)(=O)N2` [Compound I-189] here?
**A.** The value was “+++ (+++ is >60%)”.

**Q.** For `Cc1cccc(C)c1-c1cc2nc(n1)NS(=O)(=O)c1cccc(c1)C(=O)N(Cc1cnc3cc(C(C)C)n(C)c3n1)[C@H](C[C@@H]1CCCCO1)CO2` [Compound I-15, (11R)-6-(2,6-dimethylphenyl)-12-[(6-isopropyl-5-methyl-pyrrolo[2,3-b]pyrazin-3-yl)methyl]-2,2-dioxo-11-[[(2S)-tetrahydropyran-2-yl]methyl]-9-oxa-2λ^6-thia-3,5,12,19-tetrazatricyclo[12.3.1.14,8]nonadeca-1(18),4(19),5,7,14,16-hexaen-13-one], which “D activity at 1 μM (%)” value is on record?
**A.** Its value is “+++ (+++ is >60%)”.

**Q.** Which “D activity at 1 μM (%)” value does the source give for `Cc1cccc(C)c1-c1cc2nc(n1)NS(=O)(=O)c1cccc(c1)C(=O)N(Cc1cnc3cc(C(C)C)n(CCO)c3n1)[C@H](CC(C)(C)C)CO2` [Compound I-160, (11R)-6-(2,6-Dimethylphenyl)-11-(2,2-dimethylpropyl)-12-[[5-(2-hydroxyethyl)-6-isopropyl-pyrrolo[2,3-b]pyrazin-3-yl]methyl]-2,2-dioxo-9-oxa-2λ^6-thia-3,5,12,19-tetrazatricyclo[12.3.1.14,8]nonadeca-1(18),4(19),5,7,14,16-hexaen-13-one] here?
**A.** The value was “+++ (+++ is >60%)”.

**Q.** Which “D activity at 1 μM (%)” value does the source give for `Cc1cccc(C)c1-c1cc2nc(n1)NS(=O)(=O)c1cccc(c1)C(=O)N(Cc1cnc3oc(C(C)(C)C)cc3n1)[C@H](CC1CC1)CO2` [Compound I-219] here?
**A.** The value was “+++ (+++ is >60%)”.

**Q.** How did the “D activity at 1 μM (%)” value turn out when `Cc1cccc(C)c1-c1cc2nc(n1)NS(=O)(=O)c1cccc(c1)C(=O)N(Cc1nc3c(cc1F)nc(C(C)C)n3C)[C@H](COC(C)C)CO2` [Compound I-68] was run?
**A.** The value was “+++ (+++ is >60%)”.

**Q.** `COC1(C[C@@H]2COc3cc(-c4c(C)cccc4C)nc(n3)NS(=O)(=O)c3cccc(c3)C(=O)N2Cc2cnc3oc(C(C)C)cc3n2)CCC1` [Compound I-76] was tested. Which “D activity at 1 μM (%)” value did it give?
**A.** Its value is “+++ (+++ is >60%)”.

Same assay, conditions: with 44 nM potentiator and 18 μM Tezacaftor, 20% human serum

**Q.** How did the “D act. at 1 μM (%)” value turn out when `Cc1cccc(C)c1-c1cc2nc(n1)NS(=O)(=O)c1cccc(c1)C(=O)N(Cc1cnc3oc([C@](C)(O)CO)cc3n1)[C@H](CC1(C)CC1)CO2` (single isomer, unassigned) [IV-14] was run?
**A.** Its value is “+++ (+++ is >60%)”.

**Q.** With `COCc1cc2nc(CN3C(=O)c4cccc(c4)S(=O)(=O)Nc4nc(cc(-c5c(C)cccc5C)n4)OC[C@H]3CC3(C)CC3)cnc2o1` [IV-16, (11R)-6-(2,6-dimethylphenyl)-12-[[6-(methoxymethyl)furo[2,3-b]pyrazin-2-yl]methyl]-11-[(1-methylcyclopropyl)methyl]-2,2-dioxo-9-oxa-2λ^6-thia-3,5,12,19-tetrazatricyclo[12.3.1.14,8]nonadeca-1(18),4(19),5,7,14,16-hexaen-13-one] as the compound, how does the “D act. at 1 μM (%)” value read?
**A.** Its value is “+++ (+++ is >60%)”.

**Q.** Which “D act. at 1 μM (%)” value does the source give for `COC(C)(C)CC(C)(O)c1cc2nc(CN3C(=O)c4cccc(c4)S(=O)(=O)Nc4nc(cc(-c5c(C)cccc5C)n4)OC[C@H]3CC3(C)CC3)cnc2o1` (stereo partly drawn) [IV-13, (11R)-6-(2,6-dimethylphenyl)-12-[[6-(1-hydroxy-3-methoxy-1,3-dimethyl-butyl)furo[2,3-b]pyrazin-2-yl]methyl]-11-[(1-methylcyclopropyl)methyl]-2,2-dioxo-9-oxa-2λ^6-thia-3,5,12,19-tetrazatricyclo[12.3.1.14,8]nonadeca-1(18),4(19),5,7,14,16-hexaen-13-one] here?
**A.** The value was “+++ (+++ is >60%)”.

**Q.** With `CCc1c2nc(nc1-c1c(C)cccc1C)NS(=O)(=O)c1cccc(c1)C(=O)N(Cc1cnc3oc(C(C)(C)C)cc3n1)[C@H](COC(C)C)CO2` [IV-3] as the compound, how does the “D act. at 1 μM (%)” value read?
**A.** The value was “+++ (+++ is >60%)”.

**Q.** How did the “D act. at 1 μM (%)” value turn out when `Cc1cccc(C)c1-c1cc2nc(n1)NS(=O)(=O)c1cccc(c1)C(=O)N(Cc1cnc3oc(C(C)(C)C)cc3n1)[C@H](CC1CCC1)CO2` [IV-7] was run?
**A.** Its value is “+++ (+++ is >60%)”.
